Counter-ions that a name gives are not always drawn.
Columns and labels:
human 5-HT1A receptors = target: T1, human 5-HT1A receptors (Homo sapiens, UniProt P08908); test: Inhibition of 3H-5-CT binding to human 5-HT1A receptors; settings: cloned human 5-HT1A receptors expressed in HeLa cells (HA7); 15 minutes at 37° C., pH 7.7
T1 construct: expressed in transfected cells; host or cells: HeLa cells (HA7)
T1 sequence (P08908 1-422): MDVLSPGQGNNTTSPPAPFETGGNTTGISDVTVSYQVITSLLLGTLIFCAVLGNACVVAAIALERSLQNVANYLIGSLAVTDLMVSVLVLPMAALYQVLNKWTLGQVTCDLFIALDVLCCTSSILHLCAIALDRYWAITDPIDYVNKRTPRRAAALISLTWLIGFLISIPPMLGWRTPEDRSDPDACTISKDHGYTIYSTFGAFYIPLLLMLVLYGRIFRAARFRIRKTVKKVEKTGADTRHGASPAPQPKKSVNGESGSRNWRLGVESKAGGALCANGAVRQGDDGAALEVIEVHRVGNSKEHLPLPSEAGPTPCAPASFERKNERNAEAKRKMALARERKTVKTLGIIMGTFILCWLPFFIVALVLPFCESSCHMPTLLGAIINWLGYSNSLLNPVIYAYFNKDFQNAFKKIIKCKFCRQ
Protocol: The affinity of the compounds of the invention to 5-HT1A receptors was determined by measuring the inhibition of binding of a radioactive ligand at 5-HT1A receptors as described in the following test:
Inhibition of ^3H-5-CT Binding to Human 5-HT1A Receptors.
By this method, the inhibition by drugs of the binding of the 5-HT1A agonist ^3H-5-carboxamido tryptamine (^3H-5-CT) to cloned human 5-HT1A receptors stably expressed in transfected HeLa cells (HA7) (Fargin, A. et al, J. Biol. Chem., 1989, 264, 14848) is determined in vitro. The assay was performed as a modification of the method described by Harrington, M. A. et al, J. Pharmacol. Exp. Ther., 1994, 268, 1098. Human 5-HT1A receptors (40 μg of cell homogenate) were incubated for 15 minutes at 37° C. in 50 mM Tris buffer at pH 7.7 in the presence of ^3H-5-CT. Non-specific binding was determined by including 10 μM of metergoline. The reaction was terminated by rapid filtration through Unifilter GF/B filters on a Tomtec Cell Harvester. Filters were counted in a Packard Top Counter.

[1] = target: T2, 3H-5-HT uptake into whole rat brain synaptosomes (serotonin reuptake) (Rattus norvegicus, UniProt P31652); test: Inhibition of 3H-5-HT uptake into rat brain synaptosomes; assay type: biochemical; settings: for IC50: in vitro; for inhibition at 0.1 µM: at 100 nM
T2 construct: whole rat brain synaptosomes; from tissue; host or cells: whole rat brain synaptosomes
Protocol: Inhibition of ^3H-5-HT Uptake Into Rat Brain Synaptosomes
Using this method, the ability of drugs to inhibit the accumulation of ^3H-5-HT into whole rat brain synaptosomes is determined in vitro. The assay was performed as described by Hyttel, J., Psychopharmacology 1978, 60, 13.

T2 sequence (P31652 whole entry): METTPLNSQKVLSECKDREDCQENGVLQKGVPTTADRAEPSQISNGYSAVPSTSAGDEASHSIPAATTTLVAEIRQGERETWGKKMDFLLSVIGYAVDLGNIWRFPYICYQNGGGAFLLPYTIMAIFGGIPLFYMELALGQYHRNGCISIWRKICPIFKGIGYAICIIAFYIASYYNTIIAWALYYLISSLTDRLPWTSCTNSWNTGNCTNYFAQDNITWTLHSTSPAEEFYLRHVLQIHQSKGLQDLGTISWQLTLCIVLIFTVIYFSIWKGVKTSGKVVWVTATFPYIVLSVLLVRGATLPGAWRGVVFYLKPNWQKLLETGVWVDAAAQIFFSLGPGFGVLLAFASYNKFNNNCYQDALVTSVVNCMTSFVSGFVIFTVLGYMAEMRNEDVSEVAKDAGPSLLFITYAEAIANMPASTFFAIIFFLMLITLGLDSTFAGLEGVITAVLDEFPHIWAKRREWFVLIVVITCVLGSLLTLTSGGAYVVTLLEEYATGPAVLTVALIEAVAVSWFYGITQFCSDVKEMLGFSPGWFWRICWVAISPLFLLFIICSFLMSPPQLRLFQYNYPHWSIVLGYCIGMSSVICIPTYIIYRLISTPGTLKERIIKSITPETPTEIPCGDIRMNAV

Fc1ccc2[nH]cc(CCCN3CCN(c4ccccc4Oc4cccc(N5CCOCC5)c4)CC3)c2c1 [Compound 5ag, 1-{2-[3-(Morpholin-4-yl)phenoxy]phenyl}-4-[3-(5-fluoro-1H-indol-3-yl)propyl]piperazine]
IC50 (human 5-HT1A receptors): 26 nM
IC50 [1]: 23 nM

c1ccc(N2CCN(CCCc3c[nH]c4ccccc34)CC2)c(Oc2ccc3c(c2)OCO3)c1 (as salt: oxalate) [Compound 2b, 1-[2-(1,3-Benzodioxolan-5-Yloxy)Phenyl]-4-[3-(1H-Indol-3-Yl)Propyl]Piperazine]
melting point: 156 to 162 °C

COc1cccc(OC)c1Oc1ccccc1N1CCN(CCCc2c[nH]c3ccc(Br)cc23)CC1 [Compound 5h, 1-[2-(2,6-Dimethoxyphenoxy)phenyl]-4-[3-(5-bromo-1H-indol-3-yl)propyl]piperazine]
IC50 (human 5-HT1A receptors): 10 nM
inhibition at 0.1 µM [1]: 55%

c1ccc(Oc2ccccc2N2CCN(CCCc3c[nH]c4ccccc34)CC2)cc1 [Compound 5e, 1-(2-Phenoxyphenyl)-4-[3-(1H-indol-3-yl)propyl]piperazine]
IC50 (human 5-HT1A receptors): 10 nM
IC50 [1]: 13 nM

c1ccc(N2CCN(CCCc3c[nH]c4ccccc34)CC2)c(Oc2ccc3c(c2)OCO3)c1 [Compound 2b, 1-[2-(1,3-Benzodioxolan-5-Yloxy)Phenyl]-4-[3-(1H-Indol-3-Yl)Propyl]Piperazine]
IC50 (human 5-HT1A receptors): 16 nM
IC50 [1]: 2.8 nM

Fc1ccc2[nH]cc(CCCN3CCN(c4ccccc4Oc4cccc5c4OCCO5)CC3)c2c1 [Compound 5a, 1-[2-(1,4-Benzodioxan-5-Yloxy)Phenyl]-4-[3-(5-Fluoro-1H-Indol-3-Yl)Propyl]Piperazine]
IC50 (human 5-HT1A receptors): 19 nM
IC50 [1]: 14 nM

Clc1ccc2c(CCCN3CCN(c4ccccc4Oc4ccc5c(c4)OCO5)CC3)c[nH]c2c1 (as salt: hydrochloride) [Compound 2c, 1-[2-(1,3-Benzodioxolan-5-Yloxy)Phenyl]-4-[3-(6-Chloro-1H-Indol-3-Yl)Propyl]Piperazine]
melting point: 165 °C (dec.)

CCOc1cccc(Oc2ccccc2N2CCN(CCCc3c[nH]c4ccc(C)cc34)CC2)c1 [Compound 5ai, 1-[2-(3-Ethoxyphenoxy)phenyl]-4-[3-(5-methyl-1H-indol-3-yl)propyl]piperazine]
IC50 (human 5-HT1A receptors): 28 nM
inhibition at 0.1 µM [1]: 34%

COc1ccccc1Oc1ccccc1N1CCN(CCCc2c[nH]c3ccc(F)cc23)CC1 [Compound 5l, 1-[2-(2-Methoxyphenoxy)phenyl]-4-[3-(5-fluoro-1H-indol-3-yl)propyl]piperazine]
IC50 (human 5-HT1A receptors): 13 nM
IC50 [1]: 4.7 nM

c1ccc(N2CCN(CCc3c[nH]c4ccccc34)CC2)c(Oc2ccc3c(c2)OCO3)c1 [Compound 1b, 1-[2-(1,3-Benzodioxolan-5-yloxy)phenyl]-4-[2-(1H-indol-3-yl)ethyl]piperazine]
IC50 (human 5-HT1A receptors): 7.8 nM
IC50 [1]: 130 nM

Cc1ccc2[nH]cc(CCCN3CCN(c4ccccc4Oc4cccc(N(C)C)c4)CC3)c2c1 [Compound 5i, 1-(2-[3-(Dimethylamino)phenoxy]phenyl]-4-[3-(5-methyl-1H-indol-3-yl)propyl]piperazine]
IC50 (human 5-HT1A receptors): 10 nM
inhibition at 0.1 µM [1]: 46%

COc1ccccc1Oc1ccccc1N1CCN(CCCc2c[nH]c3ccc(F)cc23)CC1 (as salt: hydrochloride) [Compound 2d, 1-[2-(2-Methoxyphenoxy)Phenyl]-4-[3-(5-Fluoro-1H-Indol-3-Yl)Propyl]Piperazine]
melting point: 183 to 189 °C

c1ccc(N2CCN(CCCCc3c[nH]c4ccccc34)CC2)c(Oc2ccc3c(c2)OCO3)c1 [Compound 3c]
IC50 (human 5-HT1A receptors): 16 nM
inhibition at 0.1 µM [1]: 27%

c1ccc(N2CCN(CCc3c[nH]c4ccccc34)CC2)c(Oc2ccc3c(c2)OCO3)c1 (as salt: oxalate) [Compound 1b, 1-[2-(1,3-Benzodioxolan-5-yloxy)phenyl]-4-[2-(1H-indol-3-yl)ethyl]piperazine]
melting point: 221 to 228 °C

c1ccc(N2CCN(CCCc3c[nH]c4ccccc34)CC2)c(Oc2cccc3c2OCCO3)c1 [Compound 5ae, 1-[2-(1,4-Benzodioxan-5-yloxy)phenyl]-4-[3-(1H-indol-3-yl)propyl]piperazine]
IC50 (human 5-HT1A receptors): 26 nM
inhibition at 0.1 µM [1]: 42%

Clc1ccc2c(CCN3CCN(c4ccccc4Oc4ccc5c(c4)OCO5)CC3)c[nH]c2c1 [Compound 3e, 1-[2-(1,3-Benzodioxolan-5-yloxy)phenyl]-4-[2-(6-chloro-1H-indol-3-yl)ethyl]piperazine]
IC50 (human 5-HT1A receptors): 24 nM
inhibition at 0.1 µM [1]: 40%

COc1ccccc1Oc1ccccc1N1CCN(CCCc2c[nH]c3c(F)cc(F)cc23)CC1 [Compound 5x, 1-[2-(2-Methoxyphenoxy)phenyl]-4-[3-(5,7-difluoro-1H-indol-3-yl)propyl]piperazine]
IC50 (human 5-HT1A receptors): 18 nM
IC50 [1]: 33 nM

Fc1ccc2[nH]cc(CCCN3CCN(c4ccccc4Oc4ccccc4)CC3)c2c1 [Compound 5f, 1-(2-Phenoxyphenyl)-4-[3-(5-fluoro-1H-indol-3-yl)propyl]piperazine]
IC50 (human 5-HT1A receptors): 10 nM
IC50 [1]: 4.8 nM

Source: patent US6699864B2, “Substituted phenyl-piperazine derivatives, their preparation and use” (H. Lundbeck A/S, priority 1999, dated 2004)
